In patent US8889878B2, “Haloalky-substituted amides as insecticides and acaricides” (Bayer CropScience AG, priority 2009, dated 2014):
Each block holds one compound with its values, some of them ahead of it.

Assay: logP by HPLC on reverse-phase column (EEC Directive 79/831 Annex V.A8)
Assay type: physicochemical
Settings: for chromatographic logP: reverse-phase C18 HPLC column, pH 2.7, HPLC
Description: The logP values reported in the above Tables and Preparation Examples were determined according to EEC Directive 79/831 Annex V.A8 by HPLC (High Performance Liquid Chromatography) on a reverse-phase column (C18). Temperature 43° C.

[1] = HPLC-MS, HPLC on reverse-phase column
[2] = C18 reverse phase, 43° C., acidic range pH 2.7, calibration with alkan-2-ones
[3] = HPLC, C18 reverse phase, 43° C., acidic range pH 2.7, calibration with alkan-2-ones

SMILES: CS(=O)(=O)c1cccc(C(NC(=O)/C=C/c2ccc(C(=O)Nc3ccccn3)c(C(F)(F)F)c2)C(F)(F)F)c1 (centres unmarked) [Ia-244]
logP (HPLC-MS): HPLC-MS: logP = 2.62; mass

SMILES: Cc1cc(/C=C/C(=O)NC(c2cc(Cl)cc(C(F)(F)F)c2)C(F)(F)F)ccc1C(=O)NC1CC1 (centres unmarked) [Ia-39]
logP (HPLC-MS): HPLC-MS: logP = 3.47; mass

SMILES: O=C(/C=C/c1ccc(C(=O)NCc2ccccn2)c(C(F)(F)F)c1)NC(c1cccc([N+](=O)[O-])c1)C(F)(F)F (centres unmarked) [Ia-33]
logP (HPLC-MS): HPLC-MS: logP = 2.93; mass

SMILES: O=C(/C=C/c1ccc(CNC(=O)c2ccsc2)c(C(F)(F)F)c1)NC(c1cccc(C(F)(F)F)c1)C(F)(F)F (centres unmarked) [Ia-268]
logP [1]: HPLC-MS: logP = 3.92; mass

chromatographic logP [2]: 2.13
SMILES: O=C(NC1CC1)c1ccc(Br)cc1C(F)(F)F [4-Bromo-N-cyclopropyl-2-(trifluoromethyl)benzamide]

SMILES: O=C(/C=C/c1ccc(C(=O)Nc2ccc(Cl)nn2)c(Cl)c1)NC(c1cccc(C(F)(F)F)c1)C(F)(F)F (centres unmarked) [Ia-228]
logP (HPLC-MS): HPLC-MS: logP = 3.7; mass

logP [3]: HPLC-MS: logP = 2.92; mass
SMILES: O=C(/C=C/c1ccc(C(=O)NC2CC2)c(C(F)(F)F)c1)NC(c1cccc(Cl)c1)C(F)F (centres unmarked) [Id-3]

SMILES: CCC(=O)NCc1ccc(/C=C/C(=O)NC(c2cccc(C(F)(F)F)c2)C(F)(F)F)cc1C(F)(F)F (centres unmarked) [Ia-238]
logP (HPLC-MS): HPLC-MS: logP = 3.51; mass

chromatographic logP [2]: 4.44
SMILES: CC(C)(C)OC(=O)NC1CCc2cc(/C=C/C(=O)NC(c3cccc(C(F)(F)F)c3)C(F)(F)F)ccc21 (centres unmarked) [tert-Butyl {5-[(1E)-3-oxo-3-({2,2,2-trifluoro-1-[3-(trifluoromethyl)phenyl]ethyl}amino)prop-1-en-1-yl]-2,3-dihydro-1H-inden-1-yl}carbamate]

SMILES: Cc1cccnc1NC(=O)c1ccc(/C=C/C(=O)NC(c2cccc(C(F)(F)F)c2)C(F)(F)F)cc1C(F)(F)F (centres unmarked) [Ia-255]
logP (HPLC-MS): HPLC-MS: logP = 3.19; mass

chromatographic logP [2]: 3.15
SMILES: O=C(/C=C/c1ccc(C(=O)O)c(Br)c1)NC(c1cccc(C(F)(F)F)c1)C(F)(F)F (centres unmarked) [2-Bromo-4-[(1E)-3-oxo-3-({2,2,2-trifluoro-1-[3-(trifluoromethyl)phenyl]ethyl}amino)prop-1-en-1-yl]benzoic acid]

SMILES: O=C(/C=C/c1cccc(NC(=O)C2CC2)c1)NC(c1cccc(C(F)(F)F)c1)C(F)(F)F (centres unmarked) [Ia-4]
logP (HPLC-MS): HPLC-MS: logP = 3.42; mass

SMILES: O=C(/C=C/c1ccc(-n2cncn2)c([N+](=O)[O-])c1)NC(c1cccc(C(F)(F)F)c1)C(F)(F)F (centres unmarked) [Ia-9]
logP (HPLC-MS): HPLC-MS: logP = 3.11; mass

SMILES: O=C(/C=C/c1ccc(CNC(=O)C2COC(=O)C2)c(C(F)(F)F)c1)NC(c1cccc(C(F)(F)F)c1)C(F)(F)F (centres unmarked) [Ia-269]
logP [1]: HPLC-MS: logP = 3.34; mass

logP [3]: HPLC-MS: logP = 3.33; mass
SMILES: Cn1c(C(=O)NC(c2cccc(C(F)(F)F)c2)C(F)(F)F)cc2cc(Cl)c(C(=O)NC3CC3)cc21 (centres unmarked) [Ic-48]

logP [3]: HPLC-MS: logP = 2.88; mass
SMILES: NC(=O)c1cc2cc(C(=O)NC(c3cccc(C(F)(F)F)c3)C(F)(F)F)oc2cc1F (centres unmarked) [Ic-16]

logP [3]: HPLC-MS: logP = 2.68; mass
SMILES: O=C(/C=C/c1ccc(C(=O)NC2CC2)c(C(F)(F)F)c1)NC(c1cccc(F)c1)C(F)F (centres unmarked) [Id-2]

SMILES: O=C(/C=C/c1ccc(C(=O)Nc2cccnn2)c(Cl)c1)NC(c1cccc(C(F)(F)F)c1)C(F)(F)F (centres unmarked) [Ia-217]
logP (HPLC-MS): HPLC-MS: logP = 3.29; mass

SMILES: N#Cc1cc(/C=C/C(=O)NC(c2ccc(C(F)(F)F)cc2)C(F)(F)F)ccc1-n1cncn1 (centres unmarked) [Ia-14]
logP (HPLC-MS): HPLC-MS: logP = 3.08; mass

chromatographic logP [2]: 3.61
SMILES: CC(F)(F)C(=O)c1cccc(C(F)(F)F)c1 [2,2-Difluoro-1-[3-(trifluoromethyl)phenyl]propan-1-one]

SMILES: O=C(/C=C/c1ccc(S(=O)(=O)NC2CC2)cc1)NC(c1cccc(C(F)(F)F)c1)C(F)(F)F (centres unmarked) [Ia-117]
logP (HPLC-MS): HPLC-MS: logP = 3.33; mass

SMILES: O=C(/C=C/c1ccc(C(=O)NCc2ccccn2)c(C(F)(F)F)c1)NC(c1ccc([N+](=O)[O-])cc1)C(F)(F)F (centres unmarked) [Ia-34]
logP (HPLC-MS): HPLC-MS: logP = 2.93; mass

SMILES: CS(=O)(=O)c1cccc(C(NC(=O)/C=C/c2ccc(C(=O)NC3CC3)c(C(F)(F)F)c2)C(F)(F)F)c1 (centres unmarked) [Ia-243]
logP (HPLC-MS): HPLC MS: logP = 2.31; mass

chromatographic logP [2]: 1.34
SMILES: O=C(O)/C=C/c1ccc(C(=O)NC2CC2)c(C(F)(F)F)c1 [(2E)-3-[4-(Cyclopropylcarbamoyl)-3-trifluoromethylphenyl]acrylic acid]

logP [3]: HPLC-MS: logP = 3.2; mass (m/z):
SMILES: CNC(=O)c1cc2cc(C(=O)NC(c3cccc(C(F)(F)F)c3)C(F)(F)F)n(C)c2cc1Cl (racemic) [Ic-30]

SMILES: O=C(/C=C/c1ccc(NC(=O)CC(F)(F)F)cc1)NC(c1cccc(C(F)(F)F)c1)C(F)(F)F (centres unmarked) [Ia-6]
logP (HPLC-MS): HPLC-MS: logP = 3.43; mass

SMILES: O=C(/C=C/c1ccc(C(=O)NCC(=O)NCC(F)(F)F)c(C(F)(F)F)c1)NC(c1cccc(C(F)(F)F)c1)C(F)(F)F (centres unmarked) [Ia-262]
logP [1]: HPLC-MS: logP = 3.11; mass

chromatographic logP [2]: 2.89
SMILES: O=C(NCc1ccccc1)c1ccc(Br)cc1C(F)(F)F [N-Benzyl-4-bromo-2-(trifluoromethyl)benzamide]

SMILES: CCC(C)NC(=O)c1ccc(C=CC(=O)NC(c2cccc(C(F)(F)F)c2)C(F)(F)F)cc1Cl (mixture of isomers) [Ia-192]
logP (HPLC-MS): HPLC-MS: logP = 3.71; mass

chromatographic logP [2]: 2.54
SMILES: O=C(c1cc(F)cc(C(F)(F)F)c1)C(F)(F)F [2,2,2-Trifluoro-1-[3-fluoro-5-(trifluoromethyl)phenyl]ethanone]

SMILES: COC(=O)C(C)NC(=O)c1ccc(C=CC(=O)NC(c2cccc(C(F)(F)F)c2)C(F)(F)F)cc1Cl (mixture of isomers) [Ia-191]
logP (HPLC-MS): HPLC-MS: logP = 3.29; mass

logP (pH 2.7): 0.91
SMILES: O=C(O)/C=C/c1ccc(C(=O)NCc2ccccn2)c(C(F)(F)F)c1 [(2E)-3-[4-(Pyridin-2-ylmethyl)carbamoyl)-3-trifluoromethylphenyl]acrylic acid]

chromatographic logP [2]: 3.81
SMILES: O=C(/C=C/c1cccc([N+](=O)[O-])c1)NC(c1cccc(C(F)(F)F)c1)C(F)(F)F (centres unmarked) [(2E)-3-(3-Nitrophenyl)-N-{2,2,2-trifluoro-1-[3-(trifluoromethyl)phenyl]ethyl}acrylamide]

SMILES: O=C(/C=C/c1ccc(C(=O)Nc2cnccn2)c(Cl)c1)NC(c1cccc(C(F)(F)F)c1)C(F)(F)F (racemic) [Ia-216]
logP (HPLC-MS): HPLC-MS: logP = 3.31; mass

chromatographic logP [2]: 2.51
SMILES: NC(c1cc(F)cc(C(F)(F)F)c1)C(F)(F)F (stereo not drawn) [α,3-Bis(trifluoromethyl)-5-fluorobenzenemethanamine]

SMILES: COC(=O)c1ccc(C(NC(=O)/C=C/c2ccc(C(=O)NC3CC3)c(C(F)(F)F)c2)C(F)(F)F)cc1C(F)(F)F (centres unmarked) [Ia-81]
logP (HPLC-MS): HPLC-MS: logP = 3.09; mass

chromatographic logP [2]: 2.88
SMILES: Nc1cccc(/C=C/C(=O)NC(c2cccc(C(F)(F)F)c2)C(F)(F)F)c1 (centres unmarked) [(2E)-3-(3-Aminophenyl)-N-{2,2,2-trifluoro-1-[3-(trifluoromethyl)phenyl]ethyl}acrylamide]

chromatographic logP [2]: 4.74
SMILES: CCOC(=O)c1cc2cc(C(=O)NC(c3cccc(C(F)(F)F)c3)C(F)(F)F)n(C)c2cc1Cl (centres unmarked) [Ethyl 6-chloro-1-methyl-2-({2,2,2-trifluoro-1-[3-(trifluoromethyl)phenyl]ethyl}carbamoyl)-1H-indole-5-carboxylate]

logP [3]: HPLC-MS: logP = 3.72; mass
SMILES: N#Cc1ccc2cc(C(=O)NC(c3cccc(C(F)(F)F)c3)C(F)(F)F)oc2c1 (centres unmarked) [Ic-3]

logP [3]: HPLC-MS: logP = 3.95; mass
SMILES: N#Cc1ccc2oc(C(=O)NC(c3ccc(Cl)c(Cl)c3)C(F)(F)F)cc2c1 (centres unmarked) [Ic-5]

logP [3]: HPLC-MS: logP = 2.69; mass
SMILES: NC(=O)c1ccc2oc(C(=O)NC(c3cccc(C(F)(F)F)c3)C(F)(F)F)cc2c1 (centres unmarked) [Ic-6]

SMILES: CC(=O)NCc1ccc(/C=C/C(=O)NC(c2cccc([S+](C)[O-])c2)C(F)(F)F)cc1C(F)(F)F (centres unmarked) [Ia-245]
logP (HPLC-MS): HPLC-MS: logP = 1.98; mass

SMILES: Cc1cc(/C=C/C(=O)NC(c2cccc(C(F)(F)F)c2)C(F)(F)F)ccc1C(=O)N(C)C1CC1 (centres unmarked) [Ia-116]
logP (HPLC-MS): HPLC-MS: logP = 3.37 mass

chromatographic logP [2]: 4.32
SMILES: CCOC(=O)c1cc2ccc(C(=O)OC(C)(C)C)cc2o1 [6-tert-Butyl 2-ethyl 1-benzofuran-2,6-dicarboxylate]

SMILES: O=C(/C=C/c1ccc(C(=O)NCc2nccs2)c(Br)c1)NC(c1cccc(C(F)(F)F)c1)C(F)(F)F (centres unmarked) [Ia-177]
logP (HPLC-MS): HPLC-MS: logP = 3.14; mass

SMILES: O=C(/C=C/c1ccc(C(=O)Nc2ccccn2)c(C(F)(F)F)c1)NC(c1cccc(Cl)c1)C(F)(F)F (centres unmarked) [Ia-246]
logP (HPLC-MS): HPLC-MS: logP = 3.37; mass

SMILES: O=C(/C=C/c1ccc(C(=O)NC2CC2)c(C(F)(F)F)c1)NC(c1c(F)cccc1F)C(F)(F)F (centres unmarked) [Ia-38]
logP (HPLC-MS): HPLC-MS: logP = 2.89; mass

SMILES: O=C(/C=C/c1ccc(C(=O)NCc2ccc(F)cn2)c(Cl)c1)NC(c1cccc(C(F)(F)F)c1)C(F)(F)F (centres unmarked) [Ia-236]
logP (HPLC-MS): HPLC-MS: logP = 3.15; mass

logP [3]: HPLC-MS: logP = 4.04; mass
SMILES: N#Cc1ccc2oc(C(=O)NC(c3ccc(Cl)cc3Cl)C(F)(F)F)cc2c1 (centres unmarked) [Ic-7]

chromatographic logP [2]: 2.57
SMILES: O=C(Nc1ccccn1)c1ccc(Br)cc1C(F)(F)F [4-Bromo-N-(pyridin-2-yl)-2-(trifluoromethyl)benzamide]

chromatographic logP [2]: 2.13
SMILES: O=C(NC1CC1)c1ccc(I)cc1Cl [2-Chloro-N-cyclopropyl-4-iodobenzamide]

chromatographic logP [2]: 4.13
SMILES: CC(C)(C)OC(=O)NCc1ccc(Br)cc1C(F)(F)F [tert-Butyl [4-bromo-2-(trifluoromethyl)benzyl]carbamate]

chromatographic logP [2]: 2.55
SMILES: N/C(=N\O)c1ccc(/C=C/C(=O)NC(c2cccc(C(F)(F)F)c2)C(F)(F)F)cc1C(F)(F)F (centres unmarked) [(2E)-3-[4-(N′-Hydroxycarbamimidoyl)-3-(trifluoromethyl)phenyl]-N-{2,2,2-trifluoro-1-[3-(trifluoromethyl)phenyl]ethyl}acrylamide]

SMILES: CCC(=O)NCc1ccc(/C=C/C(=O)NC(c2cccc(C(F)(F)F)c2)C(F)(F)F)cc1 (centres unmarked) [Ia-241]
logP (HPLC-MS): HPLC-MS: logP = 2.8; mass

SMILES: Cc1cc(/C=C/C(=O)NC(c2cccc(C(F)(F)F)c2)C(F)(F)F)ccc1C(=O)NC1CC1 (centres unmarked) [Ia-11]
logP (HPLC-MS): HPLC-MS: logP = 3.02; mass

logP [3]: HPLC-MS: logP = 3.02 mass (m/z):
SMILES: O=C(/C=C/c1ccc(C(=O)NCc2ccccc2)c(C(F)(F)F)c1)NC(c1ccncc1)C(F)(F)F (centres unmarked) [Ib-1]
